For data set [1], the target named is Escherichia coli UDP-2,3-diacylglucosamine hydrolase (LpxH) (Escherichia coli (strain K12), UniProt P43341). The data set can be described thus: Enzymatic IC50 assay of Escherichia coli LpxH (UMP/CMP-Glo luminescence). The conditions noted are these: Enzymatic IC50 against Escherichia coli LpxH; read-out: IC50 (converted). The class given is biochemical. In outline:
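LpxH (2 nM) preincubated 10 min at room temperature with compound (100 μM to 1.7 nM) in Tris-HCl pH7.5 buffer with 2.5 mM MnCl2, then reacted with 5 μM UDP-DAG for 20 min. Reaction heat-stopped at 95° C.; released UMP converted to ATP and read by luciferase luminescence (UMP/CMP-Glo).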

Data set [2] in a line: Human microsome stability assay. In kind it is in vitro ADME. To be noted: human liver microsomes 0.5 mg/mL, 37° C., pH 7.4, NADPH regenerating system. In outline:
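Compound […] with 0.5 mg/mL human liver microsomal protein in 100 mM potassium phosphate pH 7.4, 10 min preincubation at 37 °C, started with NADPH regenerating system. Sampled 0–30 min, remaining compound by LC-MS/MS; clearance binned low <7, medium 7–16.2, high >16.2 mL/min/kg.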
On the technique in general: Liver microsomes are a subcellular fraction often used to study metabolism.

In data set [3] the test system is Klebsiella pneumonia ATCC 43816. The data set can be described thus: Minimal Inhibitory Concentration (MIC) broth dilution assay, K. pneumonia ATCC 43816. In kind it is cell-based. To be noted: Klebsiella pneumoniae, ATCC43816, 20 hours at 35° C., CAMHB, read-out: MIC K. p ATCC 43816. In outline:
(§1)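 Broth microdilution with twofold compound series in cation-adjusted Mueller Hinton broth, inoculum 5×10^5 CFU/mL, applied to each strain. Plates incubated 20 h at 35 °C in ambient air. MIC […] recorded as the lowest concentration with no visible growth, read by eye.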
(In general: In broth dilution the organism is exposed to a series of concentrations in liquid medium.)

In data set [4] the test system is Escherichia coli BW 25113. The data set can be described thus: Minimal Inhibitory Concentration (MIC) broth dilution assay, E. coli BW 25113. The conditions noted are these: Escherichia coli, BW25113, 20 hours at 35° C., CAMHB, read-out: MIC E. coli K-12 BW 25113. In kind it is cell-based. In outline:
as §1

The subject of data set [5] is Escherichia coli ATCC 25922. The data set can be described thus: Minimal Inhibitory Concentration (MIC) broth dilution assay, E. coli ATCC 25922. The class given is cell-based. The conditions noted are these: Escherichia coli, ATCC25922, 20 h, read-out: MIC E. coli ATCC 25922. In outline:
as §1

In brackets after ≈: the same amount, converted by molar mass.

As usually defined, the IC50 is the concentration needed to halve the response being measured. One may read the MIC as the lowest concentration that inhibits growth of the organism.

Chain of Escherichia coli UDP-2,3-diacylglucosamine hydrolase (LpxH) (P43341 whole entry): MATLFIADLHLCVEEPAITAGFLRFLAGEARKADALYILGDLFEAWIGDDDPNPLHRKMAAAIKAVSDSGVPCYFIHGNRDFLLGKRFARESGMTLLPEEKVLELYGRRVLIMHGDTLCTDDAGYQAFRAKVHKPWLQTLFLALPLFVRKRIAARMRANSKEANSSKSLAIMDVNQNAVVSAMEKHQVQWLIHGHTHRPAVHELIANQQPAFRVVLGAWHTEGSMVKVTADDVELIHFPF

As to `NCCCN(CCCN)C(=O)C12CCC(C(F)(F)c3cc(Cl)nc(N4CCN(S(=O)(=O)c5ccc(N6C[C@H](N)CC6=O)cc5)CC4)c3)(CC1)CC2` [Example 045, N,N-bis(3-aminopropyl)-4-[[2-chloro-6-[4-[4-[(4R)-4-amino-2-oxo-pyrrolidin-1-yl]phenyl]sulfonylpiperazin-1-yl]-4-pyridyl]-difluoro-methyl]bicyclo[2.2.2]octane-1-carboxamide], the IC50 in data set [1] was 18.6 nM. Besides, the “Clearance of Human microsome” value in data set [2] was 8.79 mL/min/kg. Further, the MIC is 0.62 µg/mL (≈ 0.825 µM) in data set [3], 1.2 µg/mL (≈ 1.6 µM) in data set [4] and 0.62 µg/mL (≈ 0.825 µM) in data set [5].

On to `NCCN(CCN)CCCNC(=O)[C@H]1CC[C@H](C(F)(F)c2cc(Cl)nc(N3CCN(S(=O)(=O)c4ccc(N5C[C@H](N)CC5=O)cc4)CC3)c2)CC1` [Example 047], for which the IC50 in data set [1] is 6.63 nM. Further, the “Clearance of Human microsome” value in data set [2] is on record as 6.15 mL/min/kg. Besides, the MIC came out at 0.3 µg/mL (≈ 0.398 µM) in data set [3], 0.3 µg/mL (≈ 0.398 µM) in data set [4] and 0.35 µg/mL (≈ 0.464 µM) in data set [5].

As to `N[C@@H]1CC(=O)N(c2ccc(S(=O)(=O)N3CCN(c4cc(C(F)(F)[C@H]5CC[C@H](C(=O)N6C[C@H](N)C[C@H](N)C6)CC5)cc(Cl)n4)CC3)cc2)C1` [Example 048, Trans-(4R)-4-amino-1-[4-[4-[6-chloro-4-[[4-cis-(3,5-diaminopiperidine-1-carbonyl)cyclohexyl]-difluoro-methyl]-2-pyridyl]piperazin-1-yl]sulfonylphenyl]pyrrolidin-2-one], the IC50 in data set [1] is 18.3 nM. In data set [2], the “Clearance of Human microsome” value turned out to be 12.06 mL/min/kg. Moreover, the MIC in data set [3], in data set [4] and in data set [5] was 1.2 µg/mL (≈ 1.69 µM) each time.

Regarding `N[C@@H]1C[C@H](N)CN(CCCNC(=O)[C@H]2CC[C@H](C(F)(F)c3cc(Cl)nc(N4CCN(S(=O)(=O)c5ccc(N6C[C@H](N)CC6=O)cc5)CC4)c3)CC2)C1` [Example 049, Trans-4-[[2-chloro-6-[4-[4-[(4R)-4-amino-2-oxo-pyrrolidin-1-yl]phenyl]sulfonylpiperazin-1-yl]-4-pyridyl]-difluoro-methyl]-N-[3-[cis-3,5-diamino-1-piperidyl]propyl]cyclohexanecarboxamide], the IC50 in data set [1] was 9.13 nM. Moreover, the “Clearance of Human microsome” value in data set [2] is recorded as 7.38 mL/min/kg. The MIC in data set [3] came to 1.2 µg/mL (≈ 1.57 µM); in data set [4], 0.6 µg/mL (≈ 0.783 µM); in data set [5], 1.2 µg/mL (≈ 1.57 µM).

Turning to `N[C@@H]1CC(=O)N(c2ccc(S(=O)(=O)N3CCN(c4cc(C(F)(F)[C@H]5CC[C@H](C(=O)NNC(=O)C6CCNCC6)CC5)cc(Cl)n4)CC3)cc2)C1` [Example 051, Trans-N′-[4-[[2-chloro-6-[4-[4-[(4R)-4-amino-2-oxo-pyrrolidin-1-yl]phenyl]sulfonylpiperazin-1-yl]-4-pyridyl]-difluoro-methyl]cyclohexanecarbonyl]piperidine-4-carbohydrazide], the IC50 in data set [1] was 12.2 nM. The “Clearance of Human microsome” value in data set [2] is reported as 8.70 mL/min/kg. The MIC is 4.6 µg/mL (≈ 6.24 µM) in data set [3], 2.3 µg/mL (≈ 3.12 µM) in data set [4] and 4.6 µg/mL (≈ 6.24 µM) in data set [5].

Take `NC(CO)CNC(=O)[C@H]1CC[C@H](C(F)(F)c2cc(Cl)nc(N3CCN(S(=O)(=O)c4ccc(N5C[C@H](N)CC5=O)cc4)CC3)c2)CC1` (stereo partly drawn) [Example 052, Trans-N-(2-amino-3-hydroxy-propyl)-4-[[2-chloro-6-[4-[4-[(4R)-4-amino-2-oxo-pyrrolidin-1-yl]phenyl]sulfonylpiperazin-1-yl]-4-pyridyl]-difluoro-methyl]cyclohexanecarboxamide]: the IC50 in data set [1] is < 2.92 nM. The “Clearance of Human microsome” value in data set [2] is reported as 7.41 mL/min/kg. The MIC in data set [3], in data set [4] and in data set [5] was 0.56 µg/mL (≈ 0.818 µM) throughout.

Consider `NCCCNC(=O)C1CC2C(C1)C2C(F)(F)c1cc(Cl)nc(N2CCN(S(=O)(=O)c3ccc(N4C[C@H](N)CC4=O)cc3)CC2)c1` (stereo partly drawn) [Example 055, N-(3-aminopropyl)-6-[[2-chloro-6-[4-[4-[(4R)-4-amino-2-oxo-pyrrolidin-1-yl]phenyl]sulfonylpiperazin-1-yl]-4-pyridyl]-difluoro-methyl]bicyclo[3.1.0]hexane-3-carboxamide], for which the IC50 in data set [1] is 9.01 nM. Moreover, the “Clearance of Human microsome” value in data set [2] turned out to be 8.58 mL/min/kg. In addition, the MIC came out at 0.55 µg/mL (≈ 0.826 µM) in data set [3], 0.55 µg/mL (≈ 0.826 µM) in data set [4] and 0.85 µg/mL (≈ 1.28 µM) in data set [5].

Regarding `NCCCNC(=O)[C@H]1CC[C@H](C(F)(F)c2cc(Cl)nc(N3CCN(S(=O)(=O)c4ccc(N5C[C@H](N)CC5=O)cc4)CC3)c2)CC1` [Example 056, Trans-N-(3-aminopropyl)-4-[[2-chloro-6-[4-[4-[(4R)-4-amino-2-oxo-pyrrolidin-1-yl]phenyl]sulfonylpiperazin-1-yl]-4-pyridyl]-difluoro-methyl]cyclohexanecarboxamide], the half-maximal inhibitory concentration (IC50) in data set [1] was 5.99 nM. Further, the “Clearance of Human microsome” value in data set [2] was 11.37 mL/min/kg. Further, the MIC in data set [3] is 1.1 µg/mL (≈ 1.65 µM); in data set [4], 1.1 µg/mL (≈ 1.65 µM); in data set [5], 1.2 µg/mL (≈ 1.8 µM).

For the molecule `NCC1CN(C(=O)[C@H]2CC[C@H](C(F)(F)c3cc(Cl)nc(N4CCN(S(=O)(=O)c5ccc(N6C[C@H](N)CC6=O)cc5)CC4)c3)CC2)C1` [Example 057], the IC50 in data set [1] is 2.94 nM. In addition, the “Clearance of Human microsome” value in data set [2] amounted to 6.15 mL/min/kg. Further, the MIC in data set [3], in data set [4] and in data set [5] was 1.1 µg/mL (≈ 1.62 µM) throughout.

As for `NCCCNC(=O)[C@H]1CC[C@H](C(F)(F)c2cc(Cl)nc(N3CCN(S(=O)(=O)c4ccc(N5C[C@@H](CO)OC5=O)cc4)CC3)c2)CC1` [Example 058, Trans-N-(3-aminopropyl)-4-[[2-chloro-6-[4-[4-[(5S)-5-(hydroxymethyl)-2-oxo-oxazolidin-3-yl]phenyl]sulfonylpiperazin-1-y1]-4-pyridyl]-difluoro-methyl]cyclohexanecarboxamide], the IC50 in data set [1] was < 2.92 nM. Further, in data set [2], the “Clearance of Human microsome” value is listed as 8.04 mL/min/kg. Also, the MIC in data set [3] amounted to 1.1 µg/mL (≈ 1.61 µM); in data set [4], 0.29 µg/mL (≈ 0.423 µM); in data set [5], 1.1 µg/mL (≈ 1.61 µM).

Turning to `NCCCNC(=O)[C@H]1CC[C@H](C(F)(F)c2cc(Cl)nc(N3CCN(S(=O)(=O)c4ccc(N5C[C@H](CO)OC5=O)cc4)CC3)c2)CC1` [Example 059, Trans-N-(3-aminopropyl)-4-[[2-chloro-6-[4-[4-[(5R)-5-(hydroxymethyl)-2-oxo-oxazolidin-3-yl]phenyl]sulfonylpiperazin-1-yl]-4-pyridyl]-difluoro-methyl]cyclohexanecarboxamide], the IC50 in data set [1] was < 2.92 nM. Besides, in data set [2], the “Clearance of Human microsome” value was 6.15 mL/min/kg. The MIC in data set [3], in data set [4] and in data set [5] was 1.2 µg/mL (≈ 1.75 µM) each time.

For `NCCCNC(=O)[C@H]1CC[C@H](C(F)(F)c2cc(Cl)nc(N3CCN(S(=O)(=O)c4ccc(N5CC(N6CCNCC6)CC5=O)cc4)CC3)c2)CC1` (stereo partly drawn) [Example 060, Trans-N-(3-aminopropyl)-4-[[2-chloro-6-[4-[4-(2-oxo-4-piperazin-1-yl-pyrrolidin-1-yl)phenyl]sulfonylpiperazin-1-y1]-4-pyridyl]-difluoro-methyl]cyclohexanecarboxamide], the IC50 in data set [1] was < 2.71 nM. The “Clearance of Human microsome” value in data set [2] came out at 8.12 mL/min/kg. Also, the MIC in data set [3] is 1.2 µg/mL (≈ 1.63 µM); in data set [4], 2.4 µg/mL (≈ 3.26 µM); in data set [5], 1.8 µg/mL (≈ 2.44 µM).

On to `NCCCNC(=O)[C@H]1CC[C@H](C(F)(F)c2cc(Cl)nc(N3CCN(S(=O)(=O)c4ccc(N5C[C@H](N)CC5=O)nc4)CC3)c2)CC1` [Example 061, Trans-N-(3-aminopropyl)-4-[[2-chloro-6-[4-[[6-[(4R)-4-amino-2-oxo-pyrrolidin-1-yl]-3-pyridyl]sulfonyl]piperazin-1-yl]-4-pyridyl]-difluoro-methyl]cyclohexanecarboxamide], for which the IC50 in data set [1] is 2.99 nM. In addition, the “Clearance of Human microsome” value in data set [2] stood at 6.15 mL/min/kg. The MIC in data set [3], in data set [4] and in data set [5] was 1.1 µg/mL (≈ 1.64 µM) throughout.

In the case of `NCCNCCNC(=O)[C@H]1CC[C@H](C(F)(F)c2cc(Cl)nc(N3CCN(S(=O)(=O)c4ccc(N5C[C@H](N)CC5=O)cc4)CC3)c2)CC1` [Example 072, Trans-N-[2-(2-aminoethylamino)ethyl]-4-[[2-chloro-6-[4-[4-[(4R)-4-amino-2-oxo-pyrrolidin-1-yl]phenyl]sulfonylpiperazin-1-yl]-4-pyridyl]-difluoro-methyl]cyclohexanecarboxamide], the IC50 in data set [1] was 4.3 nM. Moreover, the “Clearance of Human microsome” value in data set [2] was determined as 6.15 mL/min/kg. In addition, the MIC in data set [3] is 1.1 µg/mL (≈ 1.58 µM); in data set [4] it was 0.57 µg/mL (≈ 0.817 µM); in data set [5], 1.1 µg/mL (≈ 1.58 µM).

The record behind these values is patent publication US20240417387A1, “SULFONYLPIPERAZINYL COMPOUNDS FOR TREATMENT OF BACTERIAL INFECTIONS” (Hoffmann-La Roche Inc., priority 2021, published 2024).
